Test results reported in publication PMC6934184, “Selective DNA-PKcs inhibition extends the therapeutic index of localized radiotherapy and chemotherapy” (The Journal of Clinical Investigation, 2019).

Target: T1, EGFR (ErbB1) L858R (Homo sapiens, UniProt P00533, L858R)
T1 construct: purchased Thermo Fisher Scientific (Life Technologies) SelectScreen
Test: SelectScreen Z'LYTE
Format: biochemical
Method in brief: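 Percent values come from Thermo SelectScreen profiling of NU5455, combining activity and binding assays. CSF1R was run in Z'LYTE format at Km app ATP, and CAMK1 in Adapta format with ATP listed at 10.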

T1 sequence (P00533 25-1210 L858R): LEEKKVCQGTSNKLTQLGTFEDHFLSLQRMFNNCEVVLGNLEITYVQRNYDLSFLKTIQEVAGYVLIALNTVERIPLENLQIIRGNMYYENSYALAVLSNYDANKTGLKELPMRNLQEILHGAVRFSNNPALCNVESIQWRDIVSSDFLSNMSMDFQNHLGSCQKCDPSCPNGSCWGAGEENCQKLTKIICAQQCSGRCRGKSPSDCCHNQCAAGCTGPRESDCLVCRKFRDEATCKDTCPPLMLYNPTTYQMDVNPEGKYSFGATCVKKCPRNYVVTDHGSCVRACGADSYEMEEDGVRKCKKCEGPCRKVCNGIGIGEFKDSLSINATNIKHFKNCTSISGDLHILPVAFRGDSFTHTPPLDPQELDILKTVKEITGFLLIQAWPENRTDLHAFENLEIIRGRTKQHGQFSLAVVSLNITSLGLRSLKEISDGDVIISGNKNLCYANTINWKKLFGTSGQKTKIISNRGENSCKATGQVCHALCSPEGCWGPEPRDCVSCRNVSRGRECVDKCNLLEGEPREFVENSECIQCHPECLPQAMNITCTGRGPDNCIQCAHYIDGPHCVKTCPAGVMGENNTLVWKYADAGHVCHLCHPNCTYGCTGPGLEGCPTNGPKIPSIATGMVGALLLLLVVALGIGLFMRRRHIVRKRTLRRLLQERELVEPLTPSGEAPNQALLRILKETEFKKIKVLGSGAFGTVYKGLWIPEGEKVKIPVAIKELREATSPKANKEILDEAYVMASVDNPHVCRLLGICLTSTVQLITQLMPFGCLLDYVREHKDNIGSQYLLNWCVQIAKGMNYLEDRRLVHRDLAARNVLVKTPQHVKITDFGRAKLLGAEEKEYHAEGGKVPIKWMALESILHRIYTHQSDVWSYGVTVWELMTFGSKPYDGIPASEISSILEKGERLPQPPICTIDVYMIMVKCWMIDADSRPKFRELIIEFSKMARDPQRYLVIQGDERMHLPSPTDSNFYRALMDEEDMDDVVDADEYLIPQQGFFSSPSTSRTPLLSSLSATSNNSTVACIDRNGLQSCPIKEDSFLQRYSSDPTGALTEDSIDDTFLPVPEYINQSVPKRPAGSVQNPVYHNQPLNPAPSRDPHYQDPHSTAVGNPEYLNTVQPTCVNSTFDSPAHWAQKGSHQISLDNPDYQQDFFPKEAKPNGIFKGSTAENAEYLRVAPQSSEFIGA

CN(C(=O)CN1CCOCC1)c1ccc2sc3c(-c4cccc5c(=O)cc(N6CC7CCC(C6)O7)oc45)cccc3c2c1 [NU5455]
inhibition at 1 µM: -15%
